Drawing on patent publication US20240228506A1, “RIPK1 INHIBITORS AND METHODS OF USE” (Merck Sharp & Dohme LLC, priority 2021, published 2024), this text covers IC50 for 27 molecules.

This experiment concerns the target T1, GST-RIPK1 (recombinant GST-RIPK1 kinase domain (residues 1-327)) (Homo sapiens, UniProt Q13546).
T1 construct: recombinant GST-RIPK1 kinase domain (residues 1-327) enzyme; made in house; host or cells: baculovirus-transfected Sf21 insect cells
T1 sequence (Q13546 1-327): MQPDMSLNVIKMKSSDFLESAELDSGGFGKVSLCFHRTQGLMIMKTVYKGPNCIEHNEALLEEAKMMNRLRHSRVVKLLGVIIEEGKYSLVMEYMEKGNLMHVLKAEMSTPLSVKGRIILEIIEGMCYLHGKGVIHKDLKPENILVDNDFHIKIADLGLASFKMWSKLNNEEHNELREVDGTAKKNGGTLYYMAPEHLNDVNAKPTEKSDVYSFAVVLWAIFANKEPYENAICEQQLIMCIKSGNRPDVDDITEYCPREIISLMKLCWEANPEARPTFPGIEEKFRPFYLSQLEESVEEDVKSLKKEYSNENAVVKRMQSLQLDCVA
Nature of the experiment: RIPK1-ADP-Glo enzymatic assay. The following applies: 25 nM GST-RIPK1, 300 μM ATP, 3 μM dephosphorylated-MBP; 30 minutes pre-incubation, 150 minutes reaction; ten-point titration. The class given is biochemical. Summed up:
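Ten-point 1:3 titrations from 100000 nM, 1% DMSO, were preincubated 30 min with 25 nM GST-RIPK1 (1-327) before starting with 300 μM ATP plus 3 μM dephosphorylated MBP; 150 min reaction. ADP-Glo luminescence measured ATP-to-ADP conversion; EC50 by four-parameter sigmoidal regression.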

Regarding `CC1(C(=O)N2C[C@@H]3C[C@H]2c2cncc(C#N)c2O3)CC1(F)F` (single isomer, unassigned) [Compound 1-29, (2S,5S)-4-[(S or R)-2,2-difluoro-1-methylcyclopropane-1-carbonyl]-2,3,4,5-tetrahydro-2,5-methanopyrido[3,4-f][1,4]oxazepine-9-carbonitrile], the IC50 was determined as 376 nM.

For `N#Cc1cncc2c1O[C@H]1C[C@@H]2N(C(=O)[C@H]2C[C@H](Oc3ccc(F)cc3F)C2)C1` [Compound 1-102], the half-inhibitory concentration (IC50) was 76 nM. The same measure for `C#Cc1cncc2c1O[C@H]1C[C@@H]2N(C(=O)C(C)(C)C)C1` [Compound 2-17, 1-((2S,5S)-9-Ethynyl-2,3-dihydro-2,5-methanopyrido[3,4-f][1,4]oxazepin-4(5H)-yl)-2,2-dimethylpropan-1-one]: 50 nM; for `CC1(C(=O)N2C[C@@H]3C[C@H]2c2cncc(C#N)c2O3)CCCC(F)(F)C1` (single isomer, unassigned) [Compound 1-41, (2S,5S)-4-[3,3-difluoro-1-(R or S)-methylcyclohexane-1-carbonyl]-2,3,4,5-tetrahydro-2,5-methanopyrido[3,4-f][1,4]oxazepine-9-carbonitrile]: 27 nM.

Regarding `CC1(C(=O)N2C[C@@H]3C[C@H]2c2cncc(C#N)c2O3)CC1(F)F` (single isomer, unassigned) [Compound 1-28, (2S,5S)-4-[(S or R)-2,2-difluoro-1-methylcyclopropane-1-carbonyl]-2,3,4,5-tetrahydro-2,5-methanopyrido[3,4-f][1,4]oxazepine-9-carbonitrile], the IC50 came out at 201 nM. Take `O=C(N1C[C@@H]2C[C@H]1c1cncc(C#Cc3ncccn3)c1O2)C12CCC(C(F)(F)F)(CC1)C2` [Compound 2-68, ((2S,5S)-9-(pyrimidin-2-ylethynyl)-2,3-dihydro-2,5-methanopyrido[3,4-f][1,4]oxazepin-4(5H)-yl)(4-(trifluoromethyl)bicyclo [2.2.1]heptan-1-yl)methanone]: the IC50 was found to be 134 nM. As for `N#Cc1cccc(C#Cc2cncc3c2O[C@H]2C[C@@H]3N(C(=O)C34CCC(F)(CC3)C4)C2)c1` [Compound 2-100, 3-(((2S,5S)-4-(4-fluorobicyclo[2.2.1]heptane-1-carbonyl)-2,3,4,5-tetrahydro-2,5-methanopyrido[3,4-f][1,4]oxazepin-9-yl)ethynyl)benzonitrile], the figure is 12 nM. The same measure for `CC1(C(=O)N2C[C@@H]3C[C@H]2c2cncc(F)c2O3)CCCC1` [Compound 2-23, ((2S,5S)-9-fluoro-2,3-dihydro-2,5-methanopyrido[3,4-f][1,4]oxazepin-4(5H)-yl)(1-methylcyclopentyl) methanone]: 74 nM; for `CC(C)(C(=O)N1C[C@@H]2C[C@H]1c1cncc(C#Cc3ccccc3)c1O2)C(F)F` [Compound 2-47, 3,3-Difluoro-2,2-dimethyl-1-((2S,5S)-9-(phenylethynyl)-2,3-dihydro-2,5-methanopyrido[3,4-f][1,4]oxazepin-4(5H)-yl)propan-1-one]: 66 nM. The same measure for `CC(C)(C(=O)N1C[C@@H]2C[C@H]1c1cncc(Cl)c1O2)C(F)F` [Compound 2-2, 1-((2S,5S)-9-Chloro-2,3-dihydro-2,5-methanopyrido[3,4-f][1,4]oxazepin-4(5H)-yl)-3,3-difluoro-2,2-dimethylpropan-1-one]: 139 nM; for `CC(C)(C(=O)N1C[C@@H]2C[C@H]1c1cncc(C#Cc3ccc(C(F)F)nc3)c1O2)C(F)F` [Compound 2-84, 1-((2S,5S)-9-((6-(difluoromethyl)pyridin-3-yl)ethynyl)-2,3-dihydro-2,5-methanopyrido[3,4-f][1,4]oxazepin-4(5H)-yl)-3,3-difluoro-2,2-dimethylpropan-1-one]: 26 nM.

As to `COC12CCC(C(=O)N3C[C@@H]4C[C@H]3c3cncc(C#N)c3O4)(CC1)C2` [Compound 1-97, (2S,5S)-4-(4-methoxybicyclo[2.2.1]heptane-1-carbonyl)-2,3,4,5-tetrahydro-2,5-methanopyrido[3,4-f][1,4]oxazepine-9-carbonitrile], the IC50 was 92 nM.

Take `COc1ncc(C#Cc2cncc3c2O[C@H]2C[C@@H]3N(C(=O)C(C)(C)C(F)F)C2)c(OC)n1` [Compound 2-94, 1-((2S,5S)-9-((2,4-dimethoxypyrimidin-5-yl)ethynyl)-2,3-dihydro-2,5-methanopyrido[3,4-f][1,4]oxazepin-4(5H)-yl)-3,3-difluoro-2,2-dimethylpropan-1-one]: the half-maximal inhibitory concentration (IC50) came to 49 nM. The same measure for `CCCC12CC(C(=O)N3C[C@@H]4C[C@H]3c3cncc(C#N)c3O4)(C1)C2` [Compound 1-105, (2S,5S)-4-(3-propylbicyclo[1.1.1]pentane-1-carbonyl)-2,3,4,5-tetrahydro-2,5-methanopyrido[3,4-f][1,4]oxazepine-9-carbonitrile]: 92 nM; for `O=C(N1C[C@@H]2C[C@H]1c1cncc(C#Cc3cccnc3)c1O2)C12CCC(F)(CC1)C2` [Compound 2-101, (4-fluorobicyclo[2.2.1]heptan-1-yl)((2S,5S)-9-(pyridin-3-ylethynyl)-2,3-dihydro-2,5-methanopyrido[3,4-f][1,4]oxazepin-4(5H)-yl)methanone]: 12 nM; for `O=C(N1C[C@@H]2C[C@H]1c1cncnc1O2)C12CCC(F)(CC1)C2` [Compound 3-3, ((5S,8S)-7,8-Dihydro-5,8-methanopyrimido[5,4-f][1,4]oxazepin-6(5H)-yl)(4-fluorobicyclo[2.2.1]heptan-1-yl)methanone]: 377 nM.

For the molecule `CC(C)(C(=O)N1C[C@@H]2C[C@H]1c1cncc(C#CCF)c1O2)C(F)F` [Compound 2-113, 3,3-difluoro-1-((2S,5S)-9-(3-fluoroprop-1-yn-1-yl)-2,3-dihydro-2,5-methanopyrido[3,4-f][1,4]oxazepin-4(5H)-yl)-2,2-dimethylpropan-1-one], the IC50 is 116 nM. On to `O=C(N1C[C@@H]2C[C@H]1c1cncc(C#Cc3cncnc3)c1O2)C12CCC(F)(CC1)C2` [Compound 2-102, (4-fluorobicyclo[2.2.1]heptan-1-yl)((2S,5S)-9-(pyrimidin-5-ylethynyl)-2,3-dihydro-2,5-methanopyrido[3,4-f][1,4]oxazepin-4(5H)-yl)methanone], for which the IC50 was found to be 13 nM. The same measure for `CC(C)(C#N)C(=O)N1C[C@@H]2C[C@H]1c1cncc(C#N)c1S2` [Compound 4-5, (2S,5S)-4-(2-cyano-2-methylpropanoyl)-2,3,4,5-tetrahydro-2,5-methanopyrido[3,4-f][1,4]thiazepine-9-carbonitrile]: 99 nM. Regarding `CCC(C)(C)C(=O)N1C[C@@H]2C[C@H]1c1cncc(C#N)c1O2` [Compound 1-4, (2S,5S)-4-(2,2-dimethylbutanoyl)-2,3,4,5-tetrahydro-2,5-methanopyrido[3,4-f][1,4]oxazepine-9-carbonitrile], the IC50 worked out at 13 nM.

For the molecule `CC12CCC(C(=O)N3C[C@@H]4C[C@H]3c3cncc(C#N)c3O4)(CC1)C2` [Compound 1-94, (2S,5S)-4-(4-methylbicyclo[2.2.1]heptane-1-carbonyl)-2,3,4,5-tetrahydro-2,5-methanopyrido[3,4-f][1,4]oxazepine-9-carbonitrile], the 50% inhibitory concentration (IC50) came out at 15 nM. The same measure for `CC(C)(C(=O)N1C[C@@H]2C[C@H]1c1cncc(C#Cc3cnc(C(F)(F)F)nc3)c1O2)C(F)F` [Compound 2-77, 3,3-difluoro-2,2-dimethyl-1-((2S,5S)-9-((2-(trifluoromethyl)pyrimidin-5-yl)ethynyl)-2,3-dihydro-2,5-methanopyrido[3,4-f][1,4]oxazepin-4(5H)-yl)propan-1-one]: 49 nM; for `N#Cc1cncc2c1O[C@H]1C[C@@H]2N(C(=O)C2CC3(CCCC3)C2)C1` [Compound 1-45, (2S,5S)-4-(spiro[3.4]octane-2-carbonyl)-2,3,4,5-tetrahydro-2,5-methanopyrido[3,4-f][1,4]oxazepine-9-carbonitrile]: 330 nM; for `CCC#Cc1cncc2c1O[C@H]1C[C@@H]2N(C(=O)C23CCC(F)(CC2)C3)C1` [Compound 2-117]: 43 nM. The same measure for `COc1ccccc1C#Cc1cncc2c1O[C@H]1C[C@@H]2N(C(=O)C23CCC(C(F)(F)F)(CC2)C3)C1` [Compound 2-70, ((2S,5S)-9-((2-methoxyphenyl)ethynyl)-2,3-dihydro-2,5-methanopyrido[3,4-f][1,4]oxazepin-4(5H)-yl)(4-(trifluoromethyl)bicyclo [2.2.1]heptan-1-yl)methanone]: 72 nM; for `O=C(N1C[C@@H]2C[C@H]1c1cncc(F)c1O2)C12CCC(CC1(F)F)C2` (single isomer, unassigned) [Compound 2-18, (2,2-(S or R)-difluorobicyclo[2.2.1]heptan-1-yl)((28,5S)-9-fluoro-2,3-dihydro-2,5-methanopyrido[3,4-f][1,4]oxazepin-4(5H)-yl)methanone]: 90 nM. Turning to `COc1ccc(C#Cc2cncc3c2O[C@H]2C[C@@H]3N(C(=O)C34CCC(C(F)(F)F)(CC3)C4)C2)cc1` [Compound 2-65, ((2S,5S)-9-((4-methoxyphenyl)ethynyl)-2,3-dihydro-2,5-methanopyrido[3,4-f][1,4]oxazepin-4(5H)-yl)(4-(trifluoromethyl)bicyclo [2.2.1]heptan-1-yl)methanone], the IC50 was 18 nM.
